Biological target: T1, Progesterone Receptor (PR) (Homo sapiens, UniProt P06401)
T1 construct: endogenous in cells; host or cells: T47D human breast mammary carcinoma cells
T1 sequence (P06401 1-933): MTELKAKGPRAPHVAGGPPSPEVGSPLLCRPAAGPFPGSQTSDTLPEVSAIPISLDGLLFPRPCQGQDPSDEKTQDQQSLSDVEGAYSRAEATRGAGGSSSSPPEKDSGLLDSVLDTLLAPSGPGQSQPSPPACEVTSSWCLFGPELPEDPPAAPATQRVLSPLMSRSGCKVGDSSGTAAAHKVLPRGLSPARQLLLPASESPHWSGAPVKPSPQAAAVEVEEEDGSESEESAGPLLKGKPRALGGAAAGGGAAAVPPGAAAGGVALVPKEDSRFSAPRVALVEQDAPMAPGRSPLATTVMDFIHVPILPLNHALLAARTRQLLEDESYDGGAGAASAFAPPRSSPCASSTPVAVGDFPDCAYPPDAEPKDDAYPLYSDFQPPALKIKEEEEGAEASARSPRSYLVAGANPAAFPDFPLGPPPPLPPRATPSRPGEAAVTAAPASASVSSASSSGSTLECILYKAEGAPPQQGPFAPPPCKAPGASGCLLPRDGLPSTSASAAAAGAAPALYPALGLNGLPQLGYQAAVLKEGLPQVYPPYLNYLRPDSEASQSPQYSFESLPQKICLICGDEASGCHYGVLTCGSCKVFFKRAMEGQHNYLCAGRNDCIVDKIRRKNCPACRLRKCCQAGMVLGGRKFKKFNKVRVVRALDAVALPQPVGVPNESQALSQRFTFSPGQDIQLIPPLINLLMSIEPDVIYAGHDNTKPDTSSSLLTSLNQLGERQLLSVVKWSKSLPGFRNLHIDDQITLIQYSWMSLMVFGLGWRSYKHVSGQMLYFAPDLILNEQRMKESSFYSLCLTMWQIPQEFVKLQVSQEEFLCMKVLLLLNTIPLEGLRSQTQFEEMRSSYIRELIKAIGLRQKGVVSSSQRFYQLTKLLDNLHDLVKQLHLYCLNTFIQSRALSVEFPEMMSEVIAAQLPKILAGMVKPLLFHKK
Assay: In vitro functional assay for progesterone receptor (PR) antagonists: inhibition of progesterone-induced alkaline phosphatase expression in T47D cells
Assay type: cell-based
Details: antagonist format, 5 nM progesterone, Ki calculated from IC50 with the Cheng-Prusoff equation
Description: 1.0 In vitro Functional Assay for Progesterone Receptor (PR) Antagonists, Agonists and Modulators
The assay for PR antagonism takes advantage of the extensively reported modulation of alkaline phosphatase (AP) expression in human breast T47D mammary carcinoma cells {Beck et al., D. P. (1993). The progesterone antagonist RU486 acquires agonist activity upon stimulation of cAMP signalling pathways. Proc Natl Acad Sci USA 90, 4441-4445; Fensome et al. (2002). New progesterone receptor antagonists: 3,3-disubstituted-5-aryloxindoles. Bioorg Med Chem Lett 12, 3487-3490; Zhang et al., (2002a). 6-Aryl-1,4-dihydro-benzo d1,3oxazin-2-ones: a novel class of potent, selective, and orally active nonsteroidal progesterone receptor antagonists. Journal of Medicinal Chemistry 45, 4379-4382; Zhang et al., (2003). Novel 6-aryl-1,4-dihydrobenzo d oxazine-2-thiones as potent, selective, and orally active nonsteroidal progesterone receptor agonists. Bioorganic & Medicinal Chemistry Letters 13, 1313-1316; Zhang et al., (2002b). Potent nonsteroidal progesterone receptor agonists: synthesis and SAR study of 6-aryl benzoxazines. Bioorganic & Medicinal Chemistry Letters 12, 787-790; Zhang, Z. et al., (2000). In vitro characterization of trimegestone: a new potent and selective progestin. Steroids 65, 637-643}. […] In the absence of progesterone any agonist activity is also observed as an induction of AP activity. By running the assay in two formats (+/−progesterone (P4)), compounds behaving as PR antagonists, agonists, partial agonists or modulators with mixed agonist/antagonist activity can be identified.
Briefly, T47D cells are grown by propagating in DMEM with phenol red+10% FCS+2 mM Glutamine at 37° C./5% CO2. At 70-80% confluence, the media is exchanged for phenol red free DMEM+5% CS-FCS (Assay media). Cells are incubated overnight in assay media then harvested and frozen in assay media containing 10% DMSO at 1.5e7 cells/mL in 2 mL aliquots using a Planer and immediately stored in liquid nitrogen. Vials are removed from liquid nitrogen storage and immediately thawed in a water bath at 37° C. The cell suspension is added dropwise to 20 mL of assay media, then the tube centrifuged at 1000 rpm for 4 minutes, the supernatant is discarded and the pellet re-suspended in 20 mL assay media. T47D cells are then plated at 8750 cells/well in 35 μL assay media in sufficient white solid 384 well TC plates for the assay. For the agonist format assay a further 10 μL of assay media is added to each well. These plates are then cultured for 3-6 hours at 37° C./5% CO2 before compound addition.
Test substances are prepared by in 100% DMSO, half log concentrations from 4 mM in 384 well plates 5 μL/well (referred to here as ‘grandmother plates’). Progesterone is 100 μM made up in ethanol and PBS (i.e. add 1 mL ethanol to progesterone initially to help dissolving) and stored in 0.5-1 mL aliquots at −20° C.
Using a multidrop (Thermolabsystems), 60 μL/well of buffer is added to a 384 well plate—this will be the ‘mother plate’. _Add 45 μL well buffer to grandmother plate using the multidrop (=400 μM 10% DMSO dilution). Mixed and spun to remove air bubbles. • 20 μL is taken from the grandmother plate (400 μM 10% DMSO) and added to the mother plate (=100 μM 2.5% DMSO). Mixed and spun to remove air bubbles Preparation of Max/Min:
Antagonist Min: (Checker Pattern on Plate Map) 1 μM RU-486 (FAC 0.1 μM) • 50 μL of 0.2 mM RU-486 • 10 mL Diluent Addition of Test Substance to Cell Plates • The PlateMate Plus was used to add 5 μL MAX/MIN to cell plates • Then 5 μL test substances are added from the mother plate (after removing max/min PlateMate tips: columns 1 and 24)
Addition of Agonist (5 nM Progesterone FAC) for Antagonist Format Only
25 nM progesterone in assay media is prepared from 100 μM stock (12.5 μL progesterone/50 mL media), from which 10 μL per well is transferred to the assay plate using the PlateMate Plus (already containing cells & compound). […]

Row | SMILES | Ki
1 | CC(=O)CNC(=O)c1c(C2CC2)c(-c2ccc(C#N)cc2)nn1C(C)C [Example 61, 3-(4-Cyanophenyl)-4-cyclopropyl-1-isopropyl-N-(2-oxopropyl)-1H-pyrazole-5-carboxamide] | 8.29 nM
2 | Cc1c(-c2ccc(C#N)cc2)nn(C2CCOC2)c1C(=O)NCC(C)(C)O (single isomer, unassigned) [Example 80 Ent 1, 3-(4-Cyanophenyl)-N-(2-hydroxy-2-methylpropyl)-4-methyl-1-(tetrahydrofuran-3-yl)-1H-pyrazole-5-carboxamide] | 57.1 nM
3 | CCNC(=O)c1c(C)c(-c2ccc(C#N)cc2)nn1C1CCOC1 (racemic) [Example 76, 3-(4-Cyanophenyl)-N-ethyl-4-methyl-1-(tetrahydrofuran-3-yl)-1H-pyrazole-5-carboxamide] | 26.9 nM
4 | Cc1c(-c2ccc(C#N)cc2)nn(C2CCC2)c1C(=O)NC1CC1 [Example 71, 3-(4-Cyanophenyl)-1-cyclobutyl-N-cyclopropyl-4-methyl-1H-pyrazole-5-carboxamide] | 8.25 nM
5 | CC(C)n1nc(-c2ccc(C#N)cc2)c(Cl)c1C(=O)NC[C@H](C)O [Example 129] | 13.2 nM
6 | CC(C)NC(=O)c1c(Cc2ccccc2)c(-c2ccc(C#N)cc2)nn1C(C)C [Example 95, 4-Benzyl-3-(4-cyanophenyl)-N,1-diisopropyl-1H-pyrazole-5-carboxamide] | 315 nM
7 | Cc1c(-c2ccc(C#N)cc2)nn(C2CCOC2)c1C(=O)NC(C)C (racemic) [Example 77, 3-(4-Cyanophenyl)-N-isopropyl-4-methyl-1-(tetrahydrofuran-3-yl)-1H-pyrazole-5-carboxamide] | 28.2 nM
8 | CCNC(=O)c1c(Cc2ccccc2)c(-c2ccc(C#N)cc2)nn1C(C)C [Example 97, 4-Benzyl-3-(4-cyanophenyl)-N-ethyl-1-isopropyl-1H-pyrazole-5-carboxamide] | 399 nM
9 | CC(C)n1nc(-c2ccc(C#N)cc2)c(C2CC2)c1C(=O)NC1CCOC1 (stereo not drawn) [Example 52, 3-(4-Cyanophenyl)-4-cyclopropyl-1-isopropyl-N-(tetrahydrofuran-3-yl)-1H-pyrazole-5-carboxamide] | 5.7 nM
10 | CCc1c(-c2ccc(C#N)cc2)nn(C(C)CC)c1C(=O)NCC(=O)NC (racemic) [Example 109, 1-sec-Butyl-3-(4-cyanophenyl)-4-ethyl-N-[2-(methylamino)-2-oxoethyl]-1H-pyrazole-5-carboxamide] | 199 nM
11 | CC(C)n1nc(-c2ccc(C#N)cc2)c(C2CC2)c1C(=O)NCCC(F)(F)F [Example 22, 3-(4-Cyanophenyl)-4-cyclopropyl-1-isopropyl-N-(3,3,3-trifluoropropyl)-1H-pyrazole-5-carboxamide] | 6.67 nM
12 | Cc1c(-c2ccc(C#N)cc2)nn(C2CC2)c1C(=O)NC1CC1 [Example 84, 3-(4-Cyanophenyl)-N,1-dicyclopropyl-4-methyl-1H-pyrazole-5-carboxamide] | 125 nM
13 | CC(C)n1nc(-c2ccc(C#N)cc2)c(C2CC2)c1C(=O)N[C@@H]1CC[C@H](O)C1 [Example 31, 3-(4-Cyanophenyl)-4-cyclopropyl-N-[(1R,3S)-3-hydroxycyclopentyl]-1-isopropyl-1H-pyrazole-5-carboxamide] | 36.3 nM
14 | Cc1cc(-c2nn(C(C)C)c(C(=O)NC(C)C)c2C#N)ccc1C#N [Example 123] | 5.49 nM
15 | CC(C)C(=O)N1CC[C@@H](NC(=O)c2c(C3CC3)c(-c3ccc(C#N)cc3)nn2C(C)C)C1 [Example 11, 3-(4-Cyanophenyl)-4-cyclopropyl-N-[(3R)-1-isobutyrylpyrrolidin-3-yl]-1-isopropyl-1H-pyrazole-5-carboxamide] | 18.6 nM
16 | CNC(=O)c1c(C2CC(F)(F)C2)c(-c2ccc(C#N)cc2)nn1C(C)C [Example 99, 3-(4-Cyanophenyl)-4-(3,3-difluorocyclobutyl)-1-isopropyl-N-methyl-1H-pyrazole-5-carboxamide] | 52.5 nM
17 | CCNC(=O)c1c(C2CC(F)(F)C2)c(-c2ccc(C#N)cc2)nn1C(C)C [Example 100, 3-(4-Cyanophenyl)-4-(3,3-difluorocyclobutyl)-N-ethyl-1-isopropyl-1H-pyrazole-5-carboxamide] | 151 nM
18 | CC(C)n1nc(-c2ccc(C#N)cc2)c(C2CC2)c1C(=O)NC1CCOCC1 [Example 43] | 26 nM
19 | CC(C)C(=O)N1CC(NC(=O)c2c(C3CC3)c(-c3ccc(C#N)cc3)nn2C(C)C)C1 [Example 16, 3-(4-Cyanophenyl)-4-cyclopropyl-N-(1-isobutyrylazetidin-3-yl)-1-isopropyl-1H-pyrazole-5-carboxamide] | 42.8 nM
20 | CCc1c(-c2ccc(C#N)cc2)nn(C(C)CC)c1C(=O)NCC(C)(C)O (single isomer, unassigned) [Example 106 Ent 1, 1-sec-Butyl-3-(4-cyanophenyl)-4-ethyl-N-(2-hydroxy-2-methylpropyl)-1H-pyrazole-5-carboxamide] | 14.8 nM
21 | CCc1c(-c2ccc(C#N)cc2)nn(C(C)C)c1C(=O)NC1CC1 [Example 111, 3-(4-Cyanophenyl)-N-cyclopropyl-4-ethyl-1-isopropyl-1H-pyrazole-5-carboxamide] | 23.1 nM
22 | CC(C)n1nc(-c2ccc(C#N)cc2)c(C2CC2)c1C(=O)NCC(C)(C)C [Example 34, 3-(4-Cyanophenyl)-4-cyclopropyl-N-(2,2-dimethylpropyl)-1-isopropyl-1H-pyrazole-5-carboxamide] | 18.9 nM
23 | Cc1cc(-c2nn(C(C)C)c(C(=O)NCC3CC3)c2C)ccc1C#N [Example 62, 3-(4-Cyano-3-methylphenyl)-N-(cyclopropylmethyl)-1-isopropyl-4-methyl-1H-pyrazole-5-carboxamide] | 3.09 nM
24 | CC(C)n1nc(-c2ccc(C#N)cc2)c(C2CC2)c1C(=O)NCCC1CC1 [Example 54, 3-(4-Cyanophenyl)-4-cyclopropyl-N-(2-cyclopropylethyl)-1-isopropyl-1H-pyrazole-5-carboxamide] | 8.45 nM

Source: patent US8232269B2, “Amide compounds useful in therapy” (Pfizer Inc., priority 2008, dated 2012)
